Measurements as given in patent US10233209B2, “Inhibitors of the farnesoid x receptor and uses in medicine” (The United States of America, as represented by the …, priority 2013, dated 2019).
“Also recorded” adds a separate entry of the source.

What was measured:
[1] = Gly-MCA incubation with fecal extract (hydrolysis by gut bacteria); format: in vitro ADME, mouse; conditions: 50 μM Gly-MCA; 0.1 mg/mL fecal extract; TβMCA positive control
Description: Fecal proteins were prepared from the fecal sample (0.5 g) in pH 7.4 PBS (5.0 ml) using sonication. Incubation was carried out in 3 mM sodium acetate buffer, pH 5.2, containing 0.1 mg/ml fecal protein and 50 μM Gly-MCA or T-β-MCA in a final volume of […]. After a 20-min incubation at 37° C., the samples were plunged into dry ice to stop the reaction. 100 of μL methanol was directly added to the […] reaction mixture. After centrifuging at 14,000 g for 20 min, […] of the supernatant was transferred to an autosampler vial subjected to analysis by a UPLC system coupled with a XEVO triple quadrupole tandem mass spectrometer (Waters Corp., Milford, Mass.).
Fecal extracts were prepared as described above. Gly-MCA (50 μM) was incubated with fecal extract (0.1 mg/mL). The negative control was fecal extract alone. The positive control was fecal extract (0.1 mg/mL) and TβMCA acid (50 μM).

[2] = tested on: HFD-treated C57BL/6N mice; assay: Gly-MCA in mice fed a high-fat diet (prevention of obesity, insulin resistance, NAFLD); format: in vivo, mouse
Description: (§1) High-fat diet (HFD) (60% kcal consisting of fat) was purchased from Bioserv. […] Fxr^fl/fl and Fxr^ΔIE (Kim et al., J. Lipid Res. 48:2664-2672, 2007) mice were backcrossed with C57BL/6N mice for over 10 generations. For the antibiotic (the combination of bacitracin, neomycin, and streptomycin) study, male C57BL/6N mice from 6 weeks of age were fed a high-fat diet (“HFD) and administered 0.1% (w/v) of each compound (the combination of bacitracin, neomycin, and streptomycin) in the drinking water. […] For TβMCA in vivo, male C57BL/6N mice from 6 weeks of age were fed a HFD and treated with the antibiotics (0.1% of each compound of bacitracin, neomycin, and streptomycin combination) for 3 days. Vehicle (saline), TCA (400 mg/kg body weight, dissolved in saline) or a combination of TCA and TβMCA (400 mg/kg body weight of each compound, dissolved in saline) were orally administered to the mice and followed by a second dose 12 h later. The mice were killed 2 h later for tissue collection. For the Gly-MCA study, Gly-MCA was custom synthesized. Bacon-flavored dough pills were produced as described (Walker et al., Toxicol. Appl. Pharmacol. 260:65-69, 2012) for oral administration of Gly-MCA (0.25 mg Gly-MCA/pill, dose of 10 mg/kg). Mice were trained to eat the dough pills prior to the study. For the prevention of obesity, insulin resistance and NAFLD, male wild-type (WT) C57BL/6N mice, 6- to 8-weeks-old, were fed a high-fat diet (Bio-Serv, Frenchtown, N.J.; 60 kcal % fat) from the age of 6 weeks and were orally administered with vehicle (control pills) or Gly-MCA (0.25 mg/pill/day, dose 10 mg/kg). C57BL/6N mice fed a high-fat diet for 12 weeks were administered (0.25 mg Gly-MCA/pill, dose of 5 mg/kg). Leptin-deficient db/db mice, 6- to 8-weeks-old, fed a chow diet, were administered Gly-MCA (0.25 mg/pill/day, 10 mg/kg). Mice were housed individually in their home cages. Cumulative food intake and TEEbal were measured for 1 week in vehicle and Gly-MCA-treated mice from 6 to 7 weeks of HFD. TEEbal was measured as previously described (Ravussin et al., Int. J. Obesity 37:399-403, 2013).
The mucosa of intestine was gently scraped and liver was taken and both were flash frozen in liquid nitrogen and stored at −80° C. until RNA was prepared. RNA was extracted from frozen intestine and liver using TRIzol reagent (Invitrogen, Carlsbad, Calif.). cDNA was synthesized from 1 μg total RNA using Superscript II reverse transcriptase (Invitrogen, Carlsbad, Calif.). qPCR primers were designed with qPrimerDepot. Measured mRNA levels were normalized to those of 18S ribosomal RNA and expressed as fold change relative to those of control group.
Lipidomics analysis: For serum lipidomics analysis 25 μl serum were extracted by 4-fold cold chloroform:methanol (2:1) solution containing 2 μM LPC (17:0), PC (17:0), SM (17:0) and CER (17:0) (Avanti Polar Lipids, Alabaster, Ala.) as internal standards. The samples were vortexed for 30 s and then allowed to stand for 5 min at room temperature. The mixture was centrifuged at 13,000 rpm for 5 min and then the lower organic phase was collected and evaporated at room temperature under vacuum. The residue was dissolved in chloroform:methanol (1:1), followed by diluting with isopropanol:acetonitrile:H2O (2:1:1) containing 2 μM PC (17:0) prior to UPLC-MS analysis. For tissue lipidomics analysis, about 50 mg of accurately weighted tissues were homogenized with 700 μL methanol: H2O (4:3) solution and then extracted using 800 μL chloroform containing 2 μM LPC (17:0), SM (17:0) and CER (17:0) as internal standards. The homogenate was incubated at 37° C. for 20 min followed by centrifuged for 20 min at 13,000 rpm. The lower organic phase was transferred to a new tube and dried under vacuum. The residue was suspended with 100 chloroform:methanol (1:1) solution and then diluted with isopropanol:acetonitrile:H2O (2:1:1) solution containing 2 μM PC (17:0) before injection. […]

[3] = tested on: HFD-induced obese mice; assay: Gly-MCA in C57BL/6N mice made obese by 12 weeks of high-fat diet; format: in vivo, mouse; conditions: 5 mg/kg
Description: as §1

[4] = Gly-MCA in mouse ileum after oral gavage; format: in vivo; conditions: oral gavage 0, 1, 5, 50 mg/kg in corn oil
Description: Gly-MCA was given to mice via oral gavage at dosages of 0, 1, 5, and 50 mg/kg of Gly-MCA, with the Gly-MCA dosed in corn oil. Gly-MCA was detected using ultra performance liquid chromatography-electrospray ionization-quadrupole time-of-flight mass spectrometry (UPLC-ESI-QTOFMS).

[5] = tested on: db/db mice; assay: Gly-MCA in leptin receptor-deficient (db/db) mice; format: in vivo, mouse
Description: as §1

[6] = liver toxicity 24 h after Gly-MCA dosing (ALT, AST); format: in vivo, mouse; conditions: 1, 5, 50 mg/kg; after 24 h; vs vehicle
Description: Mice were dosed with vehicle or Gly-MCA at 1 mg/kg, 5 mg/kg, and 50 mg/kg. After 24 h, […] (ALT) and […] (AST) levels were determined and the results shown in FIG. 37.

In the case of `C[C@H](CCC(=O)NCC(=O)O)[C@H]1CC[C@H]2[C@@H]3[C@@H](O)[C@@H](O)[C@@H]4C[C@H](O)CC[C@]4(C)[C@H]3CC[C@]12C` [Gly-MCA, glycine-β-muricholic acid], the “stability: hydrolysis to β-MCA on incubation with fecal extract” value [1] is reported as “stable in the intestine”, the “Gly-MCA levels in the feces” value ([2]; Gly-MCA treatment for 9 weeks) is reported as “markedly increased” and the “Gly-MCA levels in the ileum” value ([2]; Gly-MCA treatment for 9 weeks) is reported as “markedly increased”. For the same compound, the liver weights ([2]; HFD) was “decreased”, the “hepatic lipid droplets (liver histology)” value ([2]; HFD 7 weeks) was “marked reduction in hepatic lipid droplets” and the “Shp and Fgf15 mRNAs in the ileum” value ([2]; HFD 9 weeks) was “decreased”. For the same compound, the “expression of Shp mRNA in the liver” value ([2]; HFD 9 weeks) was “similar”, the “intestinal mRNAs of ceramide de novo synthesis-related genes (Sptic3, Cers4, Degs1, Smpd3)” value ([2]; HFD 9 weeks) was “significantly lower” and the “serum ALT levels” value ([2]; HFD 9 weeks) was “significantly decreased”. For the same compound, the “serum AST levels” value ([2]; HFD 9 weeks) was “significantly decreased”, the serum triglyceride levels ([2]; HFD 9 weeks) was “remained similar” and the body weight gain ([2]; HFD, 10 mg/kg oral, after one week of treatment) was “reduced body weight gain”. The “ITT: insulin sensitivity” value ([2]; HFD, 6 to 7 weeks) was “significantly increased”, the “energy expenditure (TEEbal)” value ([2]; HFD, 6 to 7 weeks) was “increased the energy expenditure significantly” and the food intake ([2]; HFD, 6 to 7 weeks) was “comparable”. For the same compound, the “absolute fat mass (NMR)” value ([2]; HFD, after 7 weeks of treatment) was “significantly decreased”, the “hepatic triglyceride contents decreased to” value ([2]; HFD, relative to vehicle) was “approximately 51%” and the “GTT: blood glucose levels after glucose loading” value ([2]; after 6 weeks of HFD) was “significantly reduced blood glucose levels”. For the same compound, the body weight gain ([3]; HFD-induced obese mice, from two weeks of treatment) was “reduced body weight gain”, the “absolute fat mass (NMR)” value ([3]; obese mice, 6 weeks) was “significantly decreased” and the “hepatic lipid droplets (liver histology)” value ([3]; obese mice, 6 weeks) was “marked amelioration in hepatic lipid droplets”. For the same compound, the liver weights ([3]; obese mice, 6 weeks) was “reduced”, the “Gly-MCA detected in mouse ileum (stability in intestine)” value [4] was “stable in the intestine” and the “absolute fat mass (NMR)” value ([5]; 6 weeks) was “significantly decreased”. For the same compound, the “hepatic lipid droplets (liver histology)” value ([5]; 6 weeks) was “significant decrease in hepatic lipid droplets”, the “liver TG contents” value ([5]; 6 weeks) was “dramatically improved” and the liver weights ([5]; 6 weeks) was “decreased”. For the same compound, the “serum ALT levels” value ([5]; 6 weeks) was “significantly decreased”, the “serum AST levels” value ([5]; 6 weeks) was “significantly decreased” and the serum triglyceride levels ([5]; 6 weeks) was “remained similar”. The body weight ([5]; Gly-MCA 6 weeks, 10 mg/kg) was “reduced body weight” and the “liver toxicity (serum ALT and AST levels)” value [6] was “do not develop significant liver toxicity; also recorded: did not exhibit significant liver toxicity”.
